Measurements: patent US9920056B2, “2-oxo-1,3,8-triazaspiro[4.5]decan-3-yl] carboxylic acid derivatives” (Eli Lilly and Company, priority 2015, dated 2018)
Blank lines part the entries; values can stand above or below the molecule they belong to.

Assays:
hSSTR5 [1] = target: T1, hSSTR5 (Homo sapiens, UniProt P35346); assay: Somatostatin binding assay (SPA, 125I-Somatostatin 14), human SSTR5 membranes; parameters: purchased Perkin Elmer ES-522-M400UA; host or cells: CHO (the text speaks of CHO-SSTR5 receptors); settings: human somatostatin 5 membranes, 0.25 nM [125I]-Somatostatin 14
Procedure: (§1) The antagonistic effect of the compound of Example 2 can be evaluated in human and mouse SSTR5 binding assays utilizing a scintillation proximity assay (SPA) format for a concentration response curve (CRC) (^125I-Somatostatin 14 binding to CHO-SSTR5 receptors). Perform measurement of SSTR5 binding utilizing either human somatostatin 5 membranes (manufactured by Perkin Elmer (ES-522-M400UA)) at a concentration of 0.4 μg/well or transiently expressed mouse SSTR5 membranes (generated in-house using Lipofectamine 2000 according to the manufacture's protocol (Life Technologies)) at a concentration of 8 μg/well. Homogenize membranes or dilute in buffer (prepare buffer from 25 mM HEPES (manufactured by HyClone), 5 mM MgCl2 (manufactured by Sigma), 1 mM CaCl2 (manufactured by Sigma), 0.5% BSA, pH 7.4 (manufactured by Gibco)).

male c57BL/6 mice [2] = assay: GLP-1 secretion in vivo, 12 hour PK/PD study; parameters: species or system mouse; settings: for Active GLP-1 AUC Fold Increase: vs vehicle
Procedure: Use male c57BL/6 mice from Harlan Laboratories at 8-9 weeks of age to evaluate the effects of the compound of Example 2 on GLP-1 Secretion in vivo during a 12 hour pharmacokinetic/pharmacodynamic (PK/PD) study. Maintain mice under approved Animal Care and Use protocols for Lilly Research Laboratories and house on a 12 hour light cycle from 6 am to 6 pm. The day prior to the evaluation, fast the mice at 6 pm. The following day at 6 am, measure body weight and administer vehicle (HEC 1%/Tween 80 0.25%/Antifoam 0.05%) or the compound of Example 2 alone in vehicle (HEC 1%/Tween 80 0.25%/Antifoam 0.05% suspension). Collect blood samples for measurement of active GLP-1 levels and plasma exposure (˜150 μl into EDTA coated Sarstedt Microvette® CB300 K2E tubes) at 0.25, 0.5, 1, 2, 4, 6, 9, 12 hours post-administration (only two samples collected from each mouse, euthanizing immediately following the second blood collection) Immediately after collecting the blood, preserve active GLP-1 samples with 5 μl of a mixture of DPP4 inhibitor (Bio Trend Cat. No. DPP-4)/aprotinin (Fisher BioReagents, Cat. No. BP250310), store on wet ice, spin down (3500 rpm, 4° C.). Draw off plasma, plate and freeze. Store GLP-1 samples at −80° C. until they can be analyzed utilizing a Meso Scale Discovery Active GLP-1 (v2) Kit (Cat. No. K150JWC-2). Calculate area under the curve (AUC) values.

mouse SSTR5 = target: T2, mouse SSTR5 (Mus musculus, UniProt O08858); assay: Somatostatin binding assay (SPA, 125I-Somatostatin 14), mouse SSTR5 membranes; settings: transiently expressed mouse SSTR5 membranes, 0.25 nM [125I]-Somatostatin 14
T2 construct: expressed in transfected cells; host or cells: probably CHO ('CHO-SSTR5 receptors')
T2 sequence (O08858 1-362): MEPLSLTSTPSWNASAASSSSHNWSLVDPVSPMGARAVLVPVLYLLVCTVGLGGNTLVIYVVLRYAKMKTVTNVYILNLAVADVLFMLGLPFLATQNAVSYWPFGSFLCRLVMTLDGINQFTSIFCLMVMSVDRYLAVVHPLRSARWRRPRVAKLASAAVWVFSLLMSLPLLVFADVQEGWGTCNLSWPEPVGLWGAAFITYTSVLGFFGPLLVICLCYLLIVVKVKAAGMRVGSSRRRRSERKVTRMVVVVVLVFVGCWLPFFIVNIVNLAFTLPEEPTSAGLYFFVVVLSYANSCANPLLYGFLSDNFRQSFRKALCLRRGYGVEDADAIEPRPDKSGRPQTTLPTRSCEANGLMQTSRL
Procedure: as §1

hSSTR5 [3] = target: T1, hSSTR5; assay: β-Arrestin whole cell functional assay (PathHunter CHO-K1 hSSTR5 β-arrestin cells); assay type: cell-based; parameters: host or cells: CHO-K1 (PathHunter engineered line); settings: EC80 agonist 37.5 nM SST14
Procedure: A β-arrestin whole cell, functional assay, utilizing U20S cells (human osteosarcoma cells), can directly measure effects of the compound of Example 2 on GPCR activity by determining its effects on the interaction of β-arrestin with the activated GPCR. Perform the CRC measurement of β-arrestin activity utilizing PathHunter CHO-K1 hSSTR5 β-arrestin cells from DiscoveRx (93-0402C2). Plate cells at a concentration of 5K/well in 50 μl of assay plating media in 384-well White Plates with opaque bottom (manufactured by Corning (3570)) and incubate overnight at 37° C./5% CO2. Prepare test solutions by diluting 3 μl of Example 2 with 27 μl of DMSO for a step down dilution. Mix the diluted plate of the current invention on a plate shaker for five minutes. Wash cells with 50 μl of PBS (manufactured by HyClone) three times using a plate washer. After washing, use a Wellmate to add 15 μl of assay buffer (assay buffer prepared from HBSS (manufactured by HyClone), 20 mM HEPES (manufactured by HyClone) with 0.1% BSA (manufactured by Gibco)) to the cells followed by 100 nl of the present invention serial dilution. Incubate the cells at 37° C./5% CO2 for 30 min.

male c57BL/6 mice [4] = assay: Oral Glucose Tolerance Test (OGTT): glucose and active GLP-1; assay type: in vivo, mouse; settings: for Active GLP-1 Fold Increase / Glucose % Lowering: vs vehicle
Procedure: Maintain mice under approved Animal Care and Use protocols for Lilly Research Laboratories and house on a 12 hour light cycle from 6 am to 6 pm. For the OGTT, fast the mice between 3 & 4 pm. The following day at 6 am, measure body weights and collect baseline blood samples via tail vein for glucose (Roche Aviva glucometer). […] No. […] No. DPP-4)/aprotinin (Fisher BioReagents, Cat. No. BP250310), store on wet ice, spin down (3500 rpm, 4° C.), draw off plasma, plate and freeze. […] No. […]-2). Calculate area under the curve (AUC) values.

[5] = Example 1 0.3 mg/kg orally 90 min before glucose bolus
[6] = Example 1 30 mg/kg orally 90 min before glucose bolus
[7] = Sitagliptin 10 mg/kg orally 90 min before glucose bolus

T1 sequence (P35346 whole entry): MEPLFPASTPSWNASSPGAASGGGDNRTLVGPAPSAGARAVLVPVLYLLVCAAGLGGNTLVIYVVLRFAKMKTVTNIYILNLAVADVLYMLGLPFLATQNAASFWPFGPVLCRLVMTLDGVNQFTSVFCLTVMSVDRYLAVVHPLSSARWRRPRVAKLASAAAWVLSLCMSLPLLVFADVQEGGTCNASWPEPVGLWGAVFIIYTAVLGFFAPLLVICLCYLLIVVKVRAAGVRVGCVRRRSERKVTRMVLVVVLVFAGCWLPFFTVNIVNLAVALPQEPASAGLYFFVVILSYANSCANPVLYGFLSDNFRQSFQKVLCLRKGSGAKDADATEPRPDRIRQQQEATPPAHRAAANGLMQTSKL

- Ki (hSSTR5 [1]): 0.54 nM
- Ki (mouse SSTR5): 4.87 nM
- IC50 (hSSTR5 [3]): 0.81 nM
SMILES: CCOc1cc(CN2CCC3(CC2)CN(c2ccc(C(=O)O)cc2)C(=O)N3)c(C2CC2)cc1C [Example 2, 4-[8-[(2-Cyclopropyl-5-ethoxy-4-methyl-phenyl)methyl]-2-oxo-1,3,8-triazaspiro[4.5]decan-3-yl]benzoic acid hydrate]
- Active GLP-1 AUC (0-12 hours) (male c57BL/6 mice [2]; 0.3 mg/kg, fasted mice): 60.2 ± 2.9 pg/mL-hour
- Active GLP-1 AUC Fold Increase (male c57BL/6 mice [2]; 0.3 mg/kg): 1.9
- Active GLP-1 AUC (0-12 hours) (male c57BL/6 mice [2]; 1 mg/kg, fasted mice): 71.2 ± 3.3 pg/mL-hour
- Active GLP-1 AUC Fold Increase (male c57BL/6 mice [2]; 1 mg/kg): 2.2
- Active GLP-1 AUC (0-12 hours) (male c57BL/6 mice [2]; 3 mg/kg, fasted mice): 72.5 ± 4.3 pg/mL-hour
- Active GLP-1 AUC Fold Increase (male c57BL/6 mice [2]; 3 mg/kg): 2.3
- Active GLP-1 AUC (0-12 hours) (male c57BL/6 mice [2]; 10 mg/kg, fasted mice): 87.3 ± 3.8 pg/mL-hour
- Active GLP-1 AUC Fold Increase (male c57BL/6 mice [2]; 10 mg/kg): 2.7
- Active GLP-1 AUC (0-12 hours) (male c57BL/6 mice [2]; 30 mg/kg, fasted mice): 86.3 ± 4.6 pg/mL-hour
- Active GLP-1 AUC Fold Increase (male c57BL/6 mice [2]; 30 mg/kg): 2.7
- effect on active GLP-1 (in words) (male c57BL/6 mice [2]; fasted mice, no glucose load): non-glucose dependent effect to increase active GLP-1

SMILES: CCOc1cc(CN2CCC3(CC2)CN(c2ccc(C(=O)O)cc2)C(=O)N3)c(C2CC2)cc1C.Cl [Example 1, 4-[8-[(2-Cyclopropyl-5-ethoxy-4-methyl-phenyl)methyl]-2-oxo-1,3,8-triazaspiro[4.5]decan-3-yl]benzoic acid hydrochloride]
- Active GLP-1 AUC (0-60 min) (male c57BL/6 mice [4]; [5]): 93.2 ± 15.5 pg/mL-min
- Glucose AUC (0-60 min) (male c57BL/6 mice [4]; [5]): 7441 ± 612 mg·min/dL
- Active GLP-1 Fold Increase (male c57BL/6 mice [4]; Example 1 0.3 mg/kg orally): 1.8
- Glucose % Lowering (male c57BL/6 mice [4]; Example 1 0.3 mg/kg orally): 23%
- Active GLP-1 AUC (0-60 min) (male c57BL/6 mice [4]; [6]): 151 ± 14.0 pg/mL-min
- Glucose AUC (0-60 min) (male c57BL/6 mice [4]; [6]): 5674 ± 360 mg·min/dL
- Active GLP-1 Fold Increase (male c57BL/6 mice [4]; Example 1 30 mg/kg orally): 2.9
- Glucose % Lowering (male c57BL/6 mice [4]; Example 1 30 mg/kg orally): 41%
- effect on GLP-1 in OGTT (in words) (male c57BL/6 mice [4]; OGTT in mice): increased GLP-1 activity
- effect on glucose in OGTT (in words) (male c57BL/6 mice [4]; OGTT in mice): glucose lowering effect

SMILES: N[C@@H](CC(=O)N1CCn2c(nnc2C(F)(F)F)C1)Cc1cc(F)c(F)cc1F [Sitagliptin, sitagliptin, reference compound]
- Active GLP-1 AUC (0-60 min) (male c57BL/6 mice [4]; [7]): 343 ± 73 pg/mL-min
- Glucose AUC (0-60 min) (male c57BL/6 mice [4]; [7]): 5308 ± 237 mg·min/dL
- Active GLP-1 Fold Increase (male c57BL/6 mice [4]; Sitagliptin 10 mg/kg orally): 6.6
- Glucose % Lowering (male c57BL/6 mice [4]; Sitagliptin 10 mg/kg orally): 45%
